Source: patent publication US5977110A, “Substituted cyclohexylamines as central nervous systems agents” (Warner-Lambert Company, priority 1998, dated 1999)
Where a name gives a salt, the structure may show the parent alone. Read-outs that look alike come from different tables or passages of the source.

How the values were obtained:
[1] = target: T1, serotonin 5HT1A receptor (Rat Hippocampus Membranes) (Rattus norvegicus, UniProt P19327); assay: Inhibition of [^3 H]8-OH-DPAT Binding to Rat Hippocampus Membranes; details: [^3 H]-8-OH-DPAT ligand
T1 construct: Hippocampus; from tissue; host or cells: rat hippocampus membranes
T1 sequence (P19327 1-422): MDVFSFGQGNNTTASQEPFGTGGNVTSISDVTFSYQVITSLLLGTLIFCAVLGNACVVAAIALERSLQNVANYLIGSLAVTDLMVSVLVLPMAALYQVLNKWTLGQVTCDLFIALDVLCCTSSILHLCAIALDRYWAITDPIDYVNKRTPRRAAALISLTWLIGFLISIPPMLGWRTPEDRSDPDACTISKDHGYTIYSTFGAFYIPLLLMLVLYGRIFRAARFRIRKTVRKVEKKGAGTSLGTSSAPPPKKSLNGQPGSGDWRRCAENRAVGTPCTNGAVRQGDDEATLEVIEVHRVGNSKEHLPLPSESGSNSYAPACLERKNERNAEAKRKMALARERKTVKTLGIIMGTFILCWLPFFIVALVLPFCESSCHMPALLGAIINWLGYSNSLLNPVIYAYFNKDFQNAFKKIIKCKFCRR
Description: (§1) The compounds of Formula I are valuable dopaminergic and serotonergic agents. […] Thus, the compounds of Formula I were tested for their ability to inhibit spontaneous locomotor activity in mice, a test predictive of antipsychotic activity, according to the assay described by McLean J. R., et al., Pharmacology, Biochemistry and Behavior, 1978;8:97-99; for their ability to bind to the dopamine D2 receptor using [^3 H]-2-(N-propyl-N-2-thienylethylamino)-5-hydroxytetralin ([^3 H)N-0437) as the ligand according to the method disclosed in Van der Weide J., et al., Eur. J. Pharmacol., 1987;134:211-219; and for their ability to bind to the serotonin 5HT1A receptor using [^3 H]-8-hydroxy-dipropylaminotetralin ([^3 H]-8-OH-DPAT) as the ligand according to the method disclosed in Peroutka S. J., et al., Brain Res., 1985;344:167-171. The above test methods are incorporated herein by reference. The data in the table show the dopaminergic and serotonergic activity of representative compounds of Formula I.

[2] = system: spontaneous locomotor activity in mice; assay: Inhibition of spontaneous locomotor activity in mice, a test predictive of antipsychotic activity; assay type: in vivo; details: Mus musculus, read-out: Inhibition of Locomotor Activity in Mice (ED50, mg/kg, IP)
Description: as §1

[3] = target: dopamine D2 receptor (h-D2 Receptors) (Homo sapiens, UniProt P14416); assay: Inhibition of [^3 H]N-0437 Binding to h-D2 Receptors; details: [^3 H]N-0437 ligand
Chain of dopamine D2 receptor (h-D2 Receptors) (P14416 whole entry): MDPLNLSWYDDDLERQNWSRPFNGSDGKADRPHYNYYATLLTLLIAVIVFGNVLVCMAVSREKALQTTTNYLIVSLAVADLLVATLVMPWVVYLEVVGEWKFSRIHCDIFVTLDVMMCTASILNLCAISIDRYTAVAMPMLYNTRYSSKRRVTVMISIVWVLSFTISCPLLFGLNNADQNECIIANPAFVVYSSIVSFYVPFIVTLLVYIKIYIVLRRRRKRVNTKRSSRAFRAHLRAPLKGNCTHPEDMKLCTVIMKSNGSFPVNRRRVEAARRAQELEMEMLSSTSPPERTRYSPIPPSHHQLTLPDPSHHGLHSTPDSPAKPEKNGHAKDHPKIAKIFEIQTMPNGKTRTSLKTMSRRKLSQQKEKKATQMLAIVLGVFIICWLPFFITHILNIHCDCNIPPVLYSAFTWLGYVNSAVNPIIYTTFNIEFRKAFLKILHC
Description: Thus, the compounds of Formula I were tested for their ability to inhibit spontaneous locomotor activity in mice, a test predictive of antipsychotic activity, according to the assay described by McLean J. R., et al., Pharmacology, Biochemistry and Behavior, 1978;8:97-99; for their ability to bind to the dopamine D2 receptor using [^3 H]-2-(N-propyl-N-2-thienylethylamino)-5-hydroxytetralin ([^3 H)N-0437) as the ligand according to the method disclosed in Van der Weide J., et al., Eur. J. Pharmacol., 1987;134:211-219; and for their ability to bind to the serotonin 5HT1A receptor using [^3 H]-8-hydroxy-dipropylaminotetralin ([^3 H]-8-OH-DPAT) as the ligand according to the method disclosed in Peroutka S. J., et al., Brain Res., 1985;344:167-171. The above test methods are incorporated herein by reference.

| Ki [1] | Ki [3] | SMILES | ED50 ([2]; mice, IP, ED50) | ED50 ([2]; ip) |
| --- | --- | --- | --- | --- |
|  |  | c1ccc(N2CCN(CC[C@H]3CC[C@H](Nc4ncccn4)CC3)CC2)nc1 [Example 1a, trans-{4-[2-(4-Pyridin-2-yl-piperazin-1-yl)-ethyl]-cyclohexyl}-pyrimidin-2-yl-amine] | 0.24 mg/kg |  |
| 1.9 nM | 28 nM | c1ccc(N2CCN(CC[C@H]3CC[C@@H](Nc4ncccn4)CC3)CC2)cc1 [Example 9, cis-{4-[2-(4-Phenyl-piperazin-1-yl)-ethyl]-cyclohexyl}-pyrimidin-2-yl-aminehydrochloride] |  |  |
|  |  | FC(F)(F)c1cccc(N2CCN(CC[C@H]3CC[C@H](Nc4ncccn4)CC3)CC2)c1 [Example 12, trans-Pyrimidin-2-yl-(4-{2-[4-(3-trifluoromethyl-phenyl)-piperazin-1-yl]-ethyl}-cyclohexyl)-amine] | 4.4 mg/kg |  |
|  |  | COc1ccccc1N1CCN(CC[C@H]2CC[C@H](Nc3ncccn3)CC2)CC1 [Example 13, trans-(4-{2-[4-(2-Methoxy-phenyl)-piperazin-1-yl]ethyl}-cyclohexyl)-pyrimidin-2-yl-amine] | 0.5 mg/kg |  |
| 4.4 nM | 8.3 nM | Fc1ccc(N2CCN(CC[C@H]3CC[C@H](Nc4ncccn4)CC3)CC2)cc1 [Example 15, trans-(4-{2-[4-(4-Fluoro-phenyl)-piperazin-1-yl]-ethyl}-cyclohexyl)-pyrimidin-2-yl-amine] | 0.7 mg/kg |  |
|  |  | C1=C(c2ccccc2)CCN(CC[C@H]2CC[C@H](Nc3ncccn3)CC2)C1 [Example 16, trans-{4-[2-(4-Phenyl-3,6-dihydro-2H-pyridin-1-yl)-ethyl]-cyclohexyl}-pyrimidin-2-yl-amine] |  | 0.25 mg/kg |
|  |  | c1cnc(N[C@H]2CC[C@H](CCN3CCN(c4nccs4)CC3)CC2)nc1 [Example 17, trans-Pyrimidin-2-yl-{4-[2-(4-thiazol-2-yl-piperazin-1-yl)-ethyl]-cyclohexyl}-amine] | 0.3 mg/kg |  |
|  | 25.3 nM | c1cnc(N[C@H]2CC[C@H](CCN3CCN(c4cccnc4)CC3)CC2)nc1 [Example 20, trans-{4-[2-(4-Pyridin-3-yl-piperazin-1-yl)-ethyl]-cyclohexyl}-pyrimidin-2-yl-amine] |  |  |
| 1.2 nM | 1.4 nM | c1ccc(N2CCN(CC[C@H]3CC[C@H](Nc4ccccn4)CC3)CC2)cc1 [Example 24, trans-{4-[2-(4-Phenyl-piperazin-1-yl)-ethyl]cyclohexyl}-pyridin-2-yl-amine] | 0.2 mg/kg |  |
| 7.9 nM | 2.35 nM | c1ccc(N2CCN(CC[C@H]3CC[C@H](Nc4nccs4)CC3)CC2)cc1 [Example 26, trans-{4-[2-(4-Phenyl-piperazin-1-yl)-ethyl]-cyclohexyl}-thiazol-2-yl-amine] |  |  |
| 5.1 nM | 0.93 nM | c1ccc(N2CCN(CC[C@H]3CC[C@H](Nc4cnccn4)CC3)CC2)cc1 [Example 27, trans-{4-[2-(4-Phenyl-piperazin-1-yl)-ethyl]-cyclohexyl}-pyrazin-2-yl-amine] | 0.18 mg/kg |  |

| SMILES | Ki [1] | Ki [3] | ED50 ([2]; mice, IP, ED50) | ED50 ([2]; ip) |
| --- | --- | --- | --- | --- |
| Cl.c1ccc(N2CCN(CC[C@H]3CC[C@@H](Nc4ncccn4)CC3)CC2)nc1 [Example 1, cis-{4-[2-(4-Pyridin-2-yl-piperazin-1-yl)-ethyl]-cyclohexyl}-pyrimidin-2-yl-amine hydrochloride] | 8.8 nM |  | 1.2 mg/kg |  |
| c1ccc(N2CCN(CC[C@H]3CC[C@H](Nc4ncccn4)CC3)CC2)cc1 [Example 2, trans-{4-[2-(4-Phenyl-piperazin-1-yl)-ethyl]cyclohexyl}-pyrimidin-2-yl-amine] | 3.1 nM | 3.4 nM | 0.3 mg/kg |  |
